{"source": "patent US20260183408A1", "about": "“POLYPEPTIDE AND USE THEREOF” (SHENZHEN CHENYANG BIOLOGICAL TECHNOLOGY CO., LTD, priority 2022, published 2026)", "key": {"CRS mice [1]": {"system": "CRS mice", "test": "Open field test (OFT, time spent in the central area)", "type": "in vivo, mouse", "conditions": "single intraperitoneal 3 nmol/g, 1 hour later (FIG. 13)", "procedure": "(§1) The C57BL/6J mice were horizontally fixed for 6 h (from 10 to 16 o'clock) in a first acrylic restraint which is cylindrical and flat-bottomed (25×90 mm) every day for 2 weeks. The filter had several slots which could adapt to the size of each mouse to firmly restrain the mouse and inhibit body movements of the limb and trunk without causing pain. Immediately after being restrained, the mice were sent back to their cages. Unrestrained mice (control) stayed in their cages when no CRS procedure was performed. Neither the control mice nor the CRS mice could have access to food and water during the CRS exposure.\nIn order to evaluate the anti-anxiety-like effect of the polypeptide of the present invention, a CRS mouse model was established using the method in Example 6. The mice were treated with TAT or TAT-D2R-KL (single intraperitoneal administration at 3 nmol/g in both cases), and 1 hour later, an open field test (OFT) for testing the time spent in the central area and an elevated plus maze (EPM) test were performed. […]\nOFT (for testing the time spent in the central area): The bottom of the open field was divided into 25 squares of equal area, with the 9 squares in the middle defined as the central area. One hour after the polypeptide treatment, the mice were placed in the central area to be recorded for 5 min, and the time spent in the central area by the mice was recorded."}, "CRS mice [2]": {"system": "CRS mice", "test": "Elevated plus maze (EPM) test", "type": "in vivo, mouse", "conditions": "single intraperitoneal 3 nmol/g, 1 hour later (FIG. 14)", "procedure": "as §1\nIn order to evaluate the anti-anxiety-like effect of the polypeptide of the present invention, a CRS mouse model was established using the method in Example 6. […]\nEPM: The device consisted of two open arms (25 cm×8 cm) and two closed arms (25 cm×8 cm) with the intersection as the central area (8 cm×8 cm), elevated 40 cm above the ground. One hour after the polypeptide treatment, the mice were placed in the central area facing an open arm, and their free movements were recorded for 5 min. […] The time spent in an open arm, the time spent in a closed arm, and the total moving distance of the mice were recorded."}}, "data": [{"substance": "TAT-D2R-KL: C-terminus of the KL (K226-L240) region of D2R fused to the transduction domain of HIV-1 Tat protein (SEQ ID NO: 5)", "values": [{"measurement": "time spent in the central area", "setting": "CRS mice [1]", "result": "significantly increased"}, {"measurement": "time spent in an open arm", "setting": "CRS mice [2]", "result": "significantly increased"}]}]}
